ChEMBL document CHEMBL5465560, “Selectivity Literature for EUbOPEN Chemogenomic Library” (2024)

How the values were obtained:
[1] = molecular target: T1, Interleukin-1 receptor-associated kinase 3 (Homo sapiens) (UniProt Q9Y616); conditions: at 10 µM
T1 sequence (whole entry): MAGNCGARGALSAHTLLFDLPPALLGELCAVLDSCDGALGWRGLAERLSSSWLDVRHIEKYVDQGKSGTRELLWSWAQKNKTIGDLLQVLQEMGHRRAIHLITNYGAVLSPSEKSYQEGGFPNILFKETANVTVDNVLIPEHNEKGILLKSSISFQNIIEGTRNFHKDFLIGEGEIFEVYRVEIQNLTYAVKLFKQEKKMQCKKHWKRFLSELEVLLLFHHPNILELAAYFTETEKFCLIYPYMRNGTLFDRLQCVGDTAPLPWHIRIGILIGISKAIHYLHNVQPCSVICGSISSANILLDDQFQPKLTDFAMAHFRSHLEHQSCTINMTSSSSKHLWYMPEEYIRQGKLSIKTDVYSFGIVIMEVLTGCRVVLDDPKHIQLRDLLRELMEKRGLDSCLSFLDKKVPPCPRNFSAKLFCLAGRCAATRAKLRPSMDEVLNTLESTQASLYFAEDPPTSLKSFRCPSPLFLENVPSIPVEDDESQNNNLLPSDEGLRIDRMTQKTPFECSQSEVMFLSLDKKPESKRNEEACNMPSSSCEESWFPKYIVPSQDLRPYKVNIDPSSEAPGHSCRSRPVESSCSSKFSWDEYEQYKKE

[2] = molecular target: T2, Mitogen-activated protein kinase 15 (Homo sapiens) (UniProt Q8TD08); conditions: at 10 µM
T2 sequence (whole entry): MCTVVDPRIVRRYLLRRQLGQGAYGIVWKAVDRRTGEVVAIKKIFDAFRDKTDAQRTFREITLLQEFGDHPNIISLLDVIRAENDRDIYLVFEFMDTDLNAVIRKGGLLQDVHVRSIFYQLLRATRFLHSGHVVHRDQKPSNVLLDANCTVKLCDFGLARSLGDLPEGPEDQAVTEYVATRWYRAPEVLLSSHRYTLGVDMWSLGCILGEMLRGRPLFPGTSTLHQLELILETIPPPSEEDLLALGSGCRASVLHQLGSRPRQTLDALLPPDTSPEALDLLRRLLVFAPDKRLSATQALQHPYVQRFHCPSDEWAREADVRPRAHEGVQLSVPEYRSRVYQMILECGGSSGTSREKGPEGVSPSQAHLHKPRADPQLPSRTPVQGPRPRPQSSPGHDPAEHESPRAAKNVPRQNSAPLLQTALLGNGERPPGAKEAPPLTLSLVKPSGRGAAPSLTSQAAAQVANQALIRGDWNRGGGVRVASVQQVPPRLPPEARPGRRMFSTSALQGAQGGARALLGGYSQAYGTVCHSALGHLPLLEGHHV

[3] = molecular target: T3, cAMP-dependent protein kinase catalytic subunit PRKX (Homo sapiens) (UniProt P51817); test: Selectivity interaction (SelectScreen profiling (Invitrogen)) EUB0000607a PRKX; conditions: at 2 µM
T3 sequence (whole entry): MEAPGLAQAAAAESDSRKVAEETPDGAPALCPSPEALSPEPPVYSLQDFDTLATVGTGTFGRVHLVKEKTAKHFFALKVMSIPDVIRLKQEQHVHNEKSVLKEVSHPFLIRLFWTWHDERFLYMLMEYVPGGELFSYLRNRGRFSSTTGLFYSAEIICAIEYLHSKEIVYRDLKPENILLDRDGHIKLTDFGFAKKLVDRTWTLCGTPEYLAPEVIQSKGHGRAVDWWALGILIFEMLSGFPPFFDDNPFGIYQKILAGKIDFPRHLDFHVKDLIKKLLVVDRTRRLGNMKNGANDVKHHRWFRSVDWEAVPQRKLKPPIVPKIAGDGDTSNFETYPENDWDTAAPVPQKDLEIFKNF

[4] = molecular target: cAMP-dependent protein kinase catalytic subunit beta (Homo sapiens) (UniProt P22694); test: Selectivity interaction (KinomeScan (DiscoverX)) EUB0001619a PRKACB; conditions: at 1 µM
[5] = molecular target: Serine/threonine-protein kinase WNK3 (Homo sapiens) (UniProt Q9BYP7); test: Selectivity interaction (KinomeScan (DiscoverX)) EUB0000229b WNK3; conditions: at 10 µM
Chain of Serine/threonine-protein kinase WNK3 (Homo sapiens) (Q9BYP7 whole entry): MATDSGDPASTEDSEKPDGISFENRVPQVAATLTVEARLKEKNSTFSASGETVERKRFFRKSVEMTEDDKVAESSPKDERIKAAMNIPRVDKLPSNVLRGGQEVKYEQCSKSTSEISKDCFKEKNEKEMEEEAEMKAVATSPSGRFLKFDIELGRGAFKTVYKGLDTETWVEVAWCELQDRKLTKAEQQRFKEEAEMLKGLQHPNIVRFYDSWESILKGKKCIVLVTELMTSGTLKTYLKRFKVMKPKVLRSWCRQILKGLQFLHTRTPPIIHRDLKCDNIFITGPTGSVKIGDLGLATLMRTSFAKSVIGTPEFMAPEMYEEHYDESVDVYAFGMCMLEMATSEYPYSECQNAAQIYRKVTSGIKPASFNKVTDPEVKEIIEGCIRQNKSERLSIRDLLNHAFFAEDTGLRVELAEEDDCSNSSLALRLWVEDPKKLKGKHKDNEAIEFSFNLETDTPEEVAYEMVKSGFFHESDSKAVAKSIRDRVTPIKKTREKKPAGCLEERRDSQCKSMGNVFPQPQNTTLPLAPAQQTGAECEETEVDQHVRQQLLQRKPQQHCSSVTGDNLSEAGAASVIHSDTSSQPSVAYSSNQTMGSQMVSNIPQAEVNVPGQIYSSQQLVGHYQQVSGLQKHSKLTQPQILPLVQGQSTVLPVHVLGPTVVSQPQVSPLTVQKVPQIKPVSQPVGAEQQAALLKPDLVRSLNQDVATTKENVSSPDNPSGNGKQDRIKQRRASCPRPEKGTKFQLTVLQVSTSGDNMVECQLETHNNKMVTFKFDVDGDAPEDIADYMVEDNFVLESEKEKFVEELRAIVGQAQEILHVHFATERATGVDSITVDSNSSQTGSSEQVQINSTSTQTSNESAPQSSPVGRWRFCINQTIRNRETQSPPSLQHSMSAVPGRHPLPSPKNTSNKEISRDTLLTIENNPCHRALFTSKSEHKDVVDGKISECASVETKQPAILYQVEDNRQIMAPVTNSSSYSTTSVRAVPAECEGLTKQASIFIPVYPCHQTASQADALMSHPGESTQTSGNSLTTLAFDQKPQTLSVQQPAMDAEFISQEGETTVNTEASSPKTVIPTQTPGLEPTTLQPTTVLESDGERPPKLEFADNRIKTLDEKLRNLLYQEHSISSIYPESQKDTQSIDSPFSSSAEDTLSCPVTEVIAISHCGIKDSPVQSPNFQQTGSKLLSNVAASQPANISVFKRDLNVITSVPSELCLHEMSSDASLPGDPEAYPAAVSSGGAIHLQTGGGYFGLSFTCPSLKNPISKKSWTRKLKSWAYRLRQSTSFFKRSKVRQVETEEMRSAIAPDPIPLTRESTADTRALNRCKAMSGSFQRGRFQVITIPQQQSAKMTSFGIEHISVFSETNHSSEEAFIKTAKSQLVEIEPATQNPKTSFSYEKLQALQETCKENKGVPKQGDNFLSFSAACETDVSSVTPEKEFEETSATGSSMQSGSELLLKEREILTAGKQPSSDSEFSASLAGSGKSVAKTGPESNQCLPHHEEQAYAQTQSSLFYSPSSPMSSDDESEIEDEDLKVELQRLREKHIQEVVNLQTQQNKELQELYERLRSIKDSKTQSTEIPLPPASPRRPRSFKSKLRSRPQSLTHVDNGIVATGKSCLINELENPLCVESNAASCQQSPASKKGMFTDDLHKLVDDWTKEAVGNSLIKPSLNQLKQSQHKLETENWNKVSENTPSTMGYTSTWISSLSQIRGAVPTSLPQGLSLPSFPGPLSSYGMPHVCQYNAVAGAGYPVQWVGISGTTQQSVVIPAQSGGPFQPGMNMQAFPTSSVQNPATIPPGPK

[6] = molecular target: Mu-type opioid receptor (Homo sapiens, UniProt P35372); test: Selectivity interaction (Panel of kinases, GPCRs, ion channels and transporters (enzymatic assay)) EUB0000266bCl OPRM1
Chain of Mu-type opioid receptor (P35372 whole entry): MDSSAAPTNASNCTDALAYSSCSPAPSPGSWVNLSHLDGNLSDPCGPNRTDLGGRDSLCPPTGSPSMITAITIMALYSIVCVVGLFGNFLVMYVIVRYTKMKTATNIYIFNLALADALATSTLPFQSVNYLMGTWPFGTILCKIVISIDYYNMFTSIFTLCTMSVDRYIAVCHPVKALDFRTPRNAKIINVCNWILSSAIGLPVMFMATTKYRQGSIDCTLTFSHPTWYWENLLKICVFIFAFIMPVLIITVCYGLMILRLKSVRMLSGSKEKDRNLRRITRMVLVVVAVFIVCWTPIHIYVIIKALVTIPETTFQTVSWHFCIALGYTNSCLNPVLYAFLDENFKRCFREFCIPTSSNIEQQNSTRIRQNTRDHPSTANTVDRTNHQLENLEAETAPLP

[7] = molecular target: Serine/threonine-protein kinase PAK 3 (Homo sapiens) (UniProt O75914); test: Selectivity interaction (Kinase panel (Z-LYTE Assay)) EUB0001632a PAK3; conditions: at 10 µM
Chain of Serine/threonine-protein kinase PAK 3 (Homo sapiens) (O75914 whole entry, looked up, canonical isoform): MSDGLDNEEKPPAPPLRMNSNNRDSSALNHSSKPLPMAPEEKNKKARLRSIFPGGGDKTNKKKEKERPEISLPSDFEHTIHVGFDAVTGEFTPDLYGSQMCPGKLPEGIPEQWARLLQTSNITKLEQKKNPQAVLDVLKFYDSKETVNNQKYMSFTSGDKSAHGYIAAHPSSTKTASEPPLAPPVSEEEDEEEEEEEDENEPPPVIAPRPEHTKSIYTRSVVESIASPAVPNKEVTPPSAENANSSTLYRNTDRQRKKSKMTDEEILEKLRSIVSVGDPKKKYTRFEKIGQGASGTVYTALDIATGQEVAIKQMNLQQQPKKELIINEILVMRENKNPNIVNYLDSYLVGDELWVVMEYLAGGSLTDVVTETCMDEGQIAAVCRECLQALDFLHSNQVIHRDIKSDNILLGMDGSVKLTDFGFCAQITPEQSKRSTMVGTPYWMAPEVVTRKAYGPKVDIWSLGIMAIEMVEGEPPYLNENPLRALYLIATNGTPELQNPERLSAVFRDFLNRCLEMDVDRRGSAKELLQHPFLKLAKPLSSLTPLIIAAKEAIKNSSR

[8] = molecular target: Phosphatidylinositol 4,5-bisphosphate 3-kinase catalytic subunit gamma isoform (Homo sapiens) (UniProt P48736); test: Selectivity interaction (Adapta Assay) EUB0001632a PIK3CG; conditions: at 10 µM
Chain of Phosphatidylinositol 4,5-bisphosphate 3-kinase catalytic subunit gamma isoform (Homo sapiens) (P48736 whole entry, looked up, canonical isoform): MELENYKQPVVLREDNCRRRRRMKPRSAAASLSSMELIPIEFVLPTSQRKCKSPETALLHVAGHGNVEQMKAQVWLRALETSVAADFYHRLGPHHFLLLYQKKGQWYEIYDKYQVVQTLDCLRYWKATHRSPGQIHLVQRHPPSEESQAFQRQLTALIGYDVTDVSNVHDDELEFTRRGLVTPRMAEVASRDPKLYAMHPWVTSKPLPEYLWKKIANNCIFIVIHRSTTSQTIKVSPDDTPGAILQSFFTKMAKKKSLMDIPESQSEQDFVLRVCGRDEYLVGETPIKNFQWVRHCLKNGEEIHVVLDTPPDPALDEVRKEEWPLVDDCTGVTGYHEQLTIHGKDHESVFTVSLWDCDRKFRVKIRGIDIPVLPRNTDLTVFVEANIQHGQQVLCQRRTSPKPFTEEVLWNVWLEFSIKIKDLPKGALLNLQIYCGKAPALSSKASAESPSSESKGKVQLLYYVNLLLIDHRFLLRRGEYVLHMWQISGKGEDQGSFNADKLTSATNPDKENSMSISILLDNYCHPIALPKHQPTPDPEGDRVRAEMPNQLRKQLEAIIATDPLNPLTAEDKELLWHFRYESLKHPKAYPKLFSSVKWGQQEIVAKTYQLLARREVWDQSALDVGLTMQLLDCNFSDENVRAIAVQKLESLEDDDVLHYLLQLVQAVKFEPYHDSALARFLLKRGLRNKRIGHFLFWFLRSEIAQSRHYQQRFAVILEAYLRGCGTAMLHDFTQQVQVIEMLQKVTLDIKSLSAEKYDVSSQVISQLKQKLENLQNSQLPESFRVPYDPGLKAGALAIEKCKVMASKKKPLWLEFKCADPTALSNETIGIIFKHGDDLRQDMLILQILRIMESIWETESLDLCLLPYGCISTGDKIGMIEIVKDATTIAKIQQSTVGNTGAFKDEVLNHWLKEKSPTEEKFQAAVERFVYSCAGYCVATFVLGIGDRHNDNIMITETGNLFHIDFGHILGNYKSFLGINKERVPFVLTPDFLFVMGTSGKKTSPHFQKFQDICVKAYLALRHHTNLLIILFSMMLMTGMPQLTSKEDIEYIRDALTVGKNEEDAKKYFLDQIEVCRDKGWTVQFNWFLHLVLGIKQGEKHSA

[9] = molecular target: T4, Ephrin type-B receptor 2 (Homo sapiens) (UniProt P29323); test: Selectivity interaction (Kinase screening (Nanosyn)) EUB0000604a EPHB2
T4 sequence (whole entry): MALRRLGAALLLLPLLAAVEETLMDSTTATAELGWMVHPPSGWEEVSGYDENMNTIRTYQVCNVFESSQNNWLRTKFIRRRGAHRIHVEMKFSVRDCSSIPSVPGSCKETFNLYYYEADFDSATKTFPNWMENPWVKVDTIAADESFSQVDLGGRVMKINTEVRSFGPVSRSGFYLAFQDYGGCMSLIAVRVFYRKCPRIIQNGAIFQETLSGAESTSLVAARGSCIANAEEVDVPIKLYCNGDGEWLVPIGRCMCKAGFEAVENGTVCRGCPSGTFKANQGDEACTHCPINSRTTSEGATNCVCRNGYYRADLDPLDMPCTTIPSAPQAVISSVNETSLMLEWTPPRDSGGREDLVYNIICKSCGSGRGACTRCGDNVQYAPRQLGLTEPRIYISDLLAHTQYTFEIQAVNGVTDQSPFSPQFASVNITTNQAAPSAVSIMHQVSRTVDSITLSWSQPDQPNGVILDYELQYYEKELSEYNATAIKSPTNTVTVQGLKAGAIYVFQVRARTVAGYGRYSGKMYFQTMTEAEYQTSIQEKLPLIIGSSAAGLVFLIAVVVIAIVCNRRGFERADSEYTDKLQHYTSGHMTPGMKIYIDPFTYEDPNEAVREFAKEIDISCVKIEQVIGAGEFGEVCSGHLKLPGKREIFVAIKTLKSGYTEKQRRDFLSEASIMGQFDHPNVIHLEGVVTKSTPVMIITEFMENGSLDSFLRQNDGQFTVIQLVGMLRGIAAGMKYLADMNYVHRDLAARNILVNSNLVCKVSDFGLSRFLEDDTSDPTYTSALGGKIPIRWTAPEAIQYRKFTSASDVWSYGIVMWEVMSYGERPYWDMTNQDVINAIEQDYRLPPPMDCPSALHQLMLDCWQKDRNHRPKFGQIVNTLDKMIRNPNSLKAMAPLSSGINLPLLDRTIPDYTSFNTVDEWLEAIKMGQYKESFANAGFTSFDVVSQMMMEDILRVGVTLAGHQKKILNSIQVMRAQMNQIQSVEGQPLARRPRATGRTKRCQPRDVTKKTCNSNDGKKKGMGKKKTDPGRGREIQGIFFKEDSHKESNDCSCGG

**Q.** With `CCN(CC)CCCCNc1ncc2cc(-c3cc(OC)cc(OC)c3)c(NC(=O)NC(C)(C)C)nc2n1` as the compound, how does the % of control [1] read?
**A.** 100%

**Q.** What about the % of control [2] of the same compound?
**A.** 100%

**Q.** With `CNC(=O)Nc1ccc(-c2nc(N3CC4CCC(C3)O4)c3cnn(C4CCC5(CC4)OCCO5)c3n2)cc1` as the compound, how does the % of inhibition [3] read?
**A.** 5%

**Q.** With `N#Cc1cccc(-c2c[nH]c3ncnc(N4CCOCC4)c23)c1` as the compound, how does the % of control [4] read?
**A.** 84%

**Q.** How did the % binding [5] turn out when `COc1cc(N(C)c2ccnc3ccc(C(F)(F)F)cc23)cc(OC)c1OC` was run?
**A.** 80%

**Q.** How did the pXC50 [6] turn out when `CCn1c(-c2nc3cc(C(=O)N4CCCC(N)C4)ccc3n2C)cc2ccccc21` (centres undefined) was run?
**A.** < 4 M

**Q.** With `Cn1cc(-n2cnc3c(NCc4nc5cc(Cl)c(Cl)cc5[nH]4)nc(N4CCOCC4)nc32)cn1` as the compound, how does the % of control [7] read?
**A.** -20.7%

**Q.** And the % of inhibition [8]?
**A.** 29.5%

**Q.** Which % of inhibition [9] does the source give for `Cc1cnc(Nc2ccc(F)cc2Cl)nc1-c1c[nH]c(C(=O)N[C@H](CO)c2cccc(Cl)c2)c1` here?
**A.** 0%
